Read-outs that look alike come from different tables or passages of the source.
System: C. albicans R303
Experiment: mouse candidiasis infection model, IP administration, kidney fungal burden
Assay type: in vivo
Conditions: for log reduction at 0.5 mg/kg / log reduction at 1.5 mg/kg / log reduction at 4.5 mg/kg / log reduction at 5 mg/kg: Candida albicans, R303, ip, 24 h, read-out: Difference from 24-h control; for Mean log10 CFU/kidneys (±SEM) / Mean log10 CFU/kidneys (±SD): kidneys 24 h after infection; for log reduction at 5 mg/kg / Mean log10 CFU/kidneys (±SD): First run, IP 5 mg/kg; for Mean log10 CFU/kidneys (±SD): neutropenic mice; for overall performance in reducing C. albicans CFUs in the kidneys of the mice: conclusion over all runs
Method: The objective of these studies was to evaluate the efficacy of test compounds in the mouse candidiasis infection model. Amounts of test articles are uncorrected.
The strain, C. albicans R303 was transferred from frozen storage onto Sabauroud dextrose agar (SDA) plates and grown for ˜24 hr at 35° C. The inoculum was prepared by transferring colonies from the plate to phosphate buffered saline (PBS) and the concentration adjusted to approximately 10^6 CFU/mL with the aid of a spectrophotometer. The stock was diluted 1:9 to prepare the inoculum. Prior to each run the concentration was verified using the dilution plate count method.
Female CD-1 mice were used in this study. The animals were approximately seven-weeks-old at the start of the study and weighed about 15-30 g.
Mice were made neutropenic with IP injections of cyclophosphamide (150 mg/kg in 10 mL/kg) at 4 and 1 day before inoculation. Each animal was inoculated with the appropriate concentration by injecting 0.1 mL of inoculum into a tail vein. The test compounds were administered IP at 2 hr after infection.
In a typical procedure, the kidneys were collected from four mice in control group 1 (untreated) at 2 hr after infection, and from another four mice in control group 2 (untreated) at 24 hr after infection. Kidneys were removed aseptically from each mouse and were combined in a sterile tube. An aliquot (2 mL) of sterile PBS was added to each tube and the contents homogenized with a tissue homogenizer (Polytron 3100). Serial dilutions of the tissue homogenates were conducted and 0.1 mL aliquots were spread on SDA plates and the plates incubated at 35° C. overnight. The CFU/kidneys were determined from colony counts. Data were analyzed using one-way ANOVA with either the Tukey-Kramer Multiple Comparisons Test or Dunnett Test (GraphPad InStat version 3.06, GraphPad Software, San Diego, Calif.).
The data reported below are the average of four mice. Each run included a separate control and each is tabulated separately.

SMILES	overall performance in reducing C. albicans CFUs in the kidneys of the mice	log reduction at 0.5 mg/kg (Fourth run, IP 0.5 mg/kg)	log reduction at 1.5 mg/kg (Fourth run, IP 1.5 mg/kg)	Mean log10 CFU/kidneys (±SEM) (Fourth run, IP 0.5 mg/kg) [log10 CFU/kidneys]	Mean log10 CFU/kidneys (±SEM) (Fourth run, IP 1.5 mg/kg) [log10 CFU/kidneys]	also measured
CC[C@H](C)C[C@H](C)CCCCCCCCC(=O)N[C@H]1C[C@@H](O)[C@@H](NCCN)NC(=O)[C@@H]2[C@@H](O)CCN2C(=O)[C@H]([C@H](O)CCN)NC(=O)[C@H]([C@H](O)[C@@H](O)c2ccc(O)cc2)NC(=O)[C@@H]2C[C@@H](O)CN2C(=O)[C@H]([C@@H](C)O)NC1=O [caspofungin, reference compound]						log reduction at 0.5 mg/kg (Third run, IP 0.5 mg/kg): 4.88; log reduction at 1.5 mg/kg (Third run, IP 1.5 mg/kg): 4.48; log reduction at 4.5 mg/kg (Third run, IP 4.5 mg/kg): 5.2; Mean log10 CFU/kidneys (±SEM) (Third run, IP 0.5 mg/kg): 0.33 ± 0.33 log10 CFU/kidneys; Mean log10 CFU/kidneys (±SEM) (Third run, IP 1.5 mg/kg): 0.73 ± 0.42 log10 CFU/kidneys; Mean log10 CFU/kidneys (±SEM) (Third run, IP 4.5 mg/kg): 0.00 ± 0.00 log10 CFU/kidneys
CCCCCOc1ccc(-c2ccc(-c3ccc(C(=O)N[C@H]4C[C@@H](O)C(OCCN(C)C)NC(=O)C5[C@@H](O)[C@@H](C)CN5C(=O)C([C@@H](C)O)NC(=O)C([C@H](O)[C@@H](O)c5ccc(O)cc5)NC(=O)C5C[C@@H](O)CN5C(=O)C([C@@H](C)O)NC4=O)cc3)cc2)cc1 (stereo partly shown) [compound 2]	performed moderately					log reduction at 5 mg/kg: 3.6; Mean log10 CFU/kidneys (±SD): 1.60 ± 0.35 log10 CFU/kidneys
CCCCCOc1ccc(-c2ccc(-c3ccc(C(=O)N[C@H]4C[C@@H](O)C(OCCNC)NC(=O)C5[C@@H](O)[C@@H](C)CN5C(=O)C([C@@H](C)O)NC(=O)C([C@H](O)[C@@H](O)c5ccc(O)cc5)NC(=O)C5C[C@@H](O)CN5C(=O)C([C@@H](C)O)NC4=O)cc3)cc2)cc1 (stereo partly shown) [compound 3]	performed moderately					log reduction at 5 mg/kg: 3.63; Mean log10 CFU/kidneys (±SD): 1.57 ± 0.20 log10 CFU/kidneys
CCCCCOc1ccc(-c2ccc(-c3ccc(C(=O)N[C@H]4C[C@@H](O)C(OCCN)NC(=O)C5[C@@H](O)[C@@H](C)CN5C(=O)C([C@@H](C)O)NC(=O)C([C@H](O)[C@@H](O)c5ccc(O)cc5)NC(=O)C5C[C@@H](O)CN5C(=O)C([C@@H](C)O)NC4=O)cc3)cc2)cc1 (stereo partly shown) [compound 4]	performed strongly					log reduction at 5 mg/kg: 4.47; log reduction at 0.5 mg/kg (Second run, IP 0.5 mg/kg): 1.5; log reduction at 4.5 mg/kg (Second run, IP 4.5 mg/kg): 4.22; Mean log10 CFU/kidneys (±SD): 0.73 ± 0.85 log10 CFU/kidneys; Mean log10 CFU/kidneys (±SEM) (Second run, IP 0.5 mg/kg): 3.38 ± 0.10 log10 CFU/kidneys; Mean log10 CFU/kidneys (±SEM) (Second run, IP 1.5 mg/kg): 0.65 ± 0.38 log10 CFU/kidneys; Mean log10 CFU/kidneys (±SEM) (Second run, IP 4.5 mg/kg): 0.65 ± 0.38 log10 CFU/kidneys
CCCCCOc1ccc(-c2ccc(-c3ccc(C(=O)N[C@H]4C[C@@H](O)C(OCCOCC[N+](C)(C)C)NC(=O)C5[C@@H](O)[C@@H](C)CN5C(=O)C([C@@H](C)O)NC(=O)C([C@H](O)[C@@H](O)c5ccc(O)cc5)NC(=O)C5C[C@@H](O)CN5C(=O)C([C@@H](C)O)NC4=O)cc3)cc2)cc1 (stereo partly shown) [compound 6]	performed strongly					log reduction at 0.5 mg/kg (Second run, IP 0.5 mg/kg): 0.13; log reduction at 1.5 mg/kg (Second run, IP 1.5 mg/kg): 3.27; log reduction at 4.5 mg/kg (Second run, IP 4.5 mg/kg): 4.87; Mean log10 CFU/kidneys (±SEM) (Second run, IP 0.5 mg/kg): 4.75 ± 0.19 log10 CFU/kidneys; Mean log10 CFU/kidneys (±SEM) (Second run, IP 1.5 mg/kg): 1.60 ± 0.17 log10 CFU/kidneys; Mean log10 CFU/kidneys (±SEM) (Second run, IP 4.5 mg/kg): 0.00 ± 0.00 log10 CFU/kidneys
CCCCCOc1ccc(-c2ccc(-c3ccc(C(=O)N[C@H]4C[C@@H](O)C(OCCNCCN)NC(=O)C5[C@@H](O)[C@@H](C)CN5C(=O)C([C@@H](C)O)NC(=O)C([C@H](O)[C@@H](O)c5ccc(O)cc5)NC(=O)C5C[C@@H](O)CN5C(=O)C([C@@H](C)O)NC4=O)cc3)cc2)cc1 (stereo partly shown) [compound 7]	performed strongly	0.78	3.55	4.33 ± 0.17	1.55 ± 0.19	
CCCCCOc1ccc(-c2ccc(-c3ccc(C(=O)N[C@H]4C[C@@H](O)C(NCCOC)NC(=O)C5[C@@H](O)[C@@H](C)CN5C(=O)C([C@@H](C)O)NC(=O)C([C@H](O)[C@@H](O)c5ccc(O)cc5)NC(=O)C5C[C@@H](O)CN5C(=O)C([C@@H](C)O)NC4=O)cc3)cc2)cc1 (stereo partly shown) [compound 8]	performed poorly	0.32	1.66	4.78 ± 0.15	3.45 ± 0.37	
CCCCCOc1ccc(-c2ccc(-c3ccc(C(=O)N[C@H]4C[C@@H](O)C(NCCOCCOC)NC(=O)C5[C@@H](O)[C@@H](C)CN5C(=O)C([C@@H](C)O)NC(=O)C([C@H](O)[C@@H](O)c5ccc(O)cc5)NC(=O)C5C[C@@H](O)CN5C(=O)C([C@@H](C)O)NC4=O)cc3)cc2)cc1 (stereo partly shown) [compound 9]	performed poorly	0.07	1.02	5.04 ± 0.13	4.09 ± 0.23	
CCCCCOc1ccc(-c2ccc(-c3ccc(C(=O)N[C@H]4C[C@@H](O)C(NCCOCCOCCOCCOC)NC(=O)C5[C@@H](O)[C@@H](C)CN5C(=O)C([C@@H](C)O)NC(=O)C([C@H](O)[C@@H](O)c5ccc(O)cc5)NC(=O)C5C[C@@H](O)CN5C(=O)C([C@@H](C)O)NC4=O)cc3)cc2)cc1 (stereo partly shown) [compound 10]	performed poorly	0.21	0.01	4.89 ± 0.06	5.09 ± 0.11	
CCCCCOc1ccc(-c2ccc(-c3ccc(C(=O)N[C@H]4C[C@@H](O)C(NCCOCCO)NC(=O)C5[C@@H](O)[C@@H](C)CN5C(=O)C([C@@H](C)O)NC(=O)C([C@H](O)[C@@H](O)c5ccc(O)cc5)NC(=O)C5C[C@@H](O)CN5C(=O)C([C@@H](C)O)NC4=O)cc3)cc2)cc1 (stereo partly shown) [compound 11]	performed moderately	0.29	2.13	4.82 ± 0.20	2.98 ± 0.03	
CCCCCOc1ccc(-c2ccc(-c3ccc(C(=O)N[C@H]4C[C@@H](O)C(NCCOCCN)NC(=O)C5[C@@H](O)[C@@H](C)CN5C(=O)C([C@@H](C)O)NC(=O)C([C@H](O)[C@@H](O)c5ccc(O)cc5)NC(=O)C5C[C@@H](O)CC5C(=O)C([C@@H](C)O)NC4=O)cc3)cc2)cc1 (stereo partly shown) [compound 12]	performed strongly	1.9	3.5	3.20 ± 0.11	1.60 ± 0.09	
CCCCCOc1ccc(-c2ccc(-c3ccc(C(=O)N[C@H]4C[C@@H](O)C(NCCOCCOCCN)NC(=O)C5[C@@H](O)[C@@H](C)CN5C(=O)C([C@@H](C)O)NC(=O)C([C@H](O)[C@@H](O)c5ccc(O)cc5)NC(=O)C5C[C@@H](O)CC5C(=O)C([C@@H](C)O)NC4=O)cc3)cc2)cc1 (stereo partly shown) [compound 13]	performed moderately	2.29	2.8	2.81 ± 0.23	2.31 ± 0.19	
CCCCCOc1ccc(-c2ccc(-c3ccc(C(=O)N[C@H]4C[C@@H](O)C(NCCOCCOCCOCCN)NC(=O)C5[C@@H](O)[C@@H](C)CN5C(=O)C([C@@H](C)O)NC(=O)C([C@H](O)[C@@H](O)c5ccc(O)cc5)NC(=O)C5C[C@@H](O)CC5C(=O)C([C@@H](C)O)NC4=O)cc3)cc2)cc1 (stereo partly shown) [compound 14]	performed poorly	0.37	0.31	4.74 ± 0.17	4.80 ± 0.34	
